Source: US6605639B1, “Ligands of nuclear receptor” (Nuclear Receptor Research, Ltd., priority 1998, dated 2003)
“And” between values parts separate entries of the source, which are not always exact repeats. Equal entries are not always repeated.

Experiments:
[1] = tested on: rats with adjuvant arthritis; experiment: Therapeutic effect on rat adjuvant arthritis; type: in vivo; conditions: for Inflammation score (5 grades, 1 normal to 5 disabled by swelling in both hind legs): 7 times, day 7
Experimental: Rats with arthritis employed in Experiment 1 were individuals which suffered from serious arthritis caused by the injection of an adjuvant 45 days ago and thus crawled on forelegs since they could not bend hind legs. Drug effects were evaluated by observing walking, observation with the naked eye of the severity of inflammation in hind legs and the volume of swelling in legs. To 19 SD male rats (weighing about 300 g), Freund's […] adjuvant containing dead tubercle bacillus Aoyama B strain was subcutaneously injected into the tail root to induce arthritis in hind legs. Compound-6 was suspended in a tragacanth gum solution and orally administered at a ratio of 0.5 ml/100 g body weight. Compound-6 was administered to 3 groups including the high-dose model (HM; 50 mg/kg), the medium-dose model (MM; 25 mg/kg) and the low-dose model (LM; 10 mg/kg). Administration was made once a day in morning continuously 7 times. During this period, the hind leg volume was measured at the initiation of the experiment and 2, 4 and 7 days thereafter. The volume change was calculated by referring the volume at the initiation of the experiment as to 100%. On the 7th day, the inflammation conditions in hind legs were evaluated in 5 grades with the naked eye.
Immediately after administration, the three Compound-6 groups were combined and divided again depending on the occurrence of arthritis (i.e., positive and negative groups). Then the data were compared with the data of the control group.

[2] = Oral administration of radioisotope-labeled compound: recovery and distribution of radioactivity; type: in vivo, rat; conditions: once
Text: The Schiff base formed by the reaction of the compound of the present invention with serum protein is an inactivated compound with a masked biological activity. […] It is still interesting that the radioactive compound incorporated into the adipocyte tissue was free Compound-6 dissolved in oil droplets in cells. It is unknown why the radioactivity is distributed selectively in adipocyte tissue and accumulated with the passage of time. […] Namely, the compound of the present invention is converted into a highly safe Schiff base with the masked biological activity at the step of being absorbed via digestive tract. This Schiff base is adsorbed on the target cell surface layer and incorporated into the cells via endocytosis. Then it is hydrolyzed to regenerate the free Compound-6. The free Compound-6 is dissolved in oil droplets in depot fat. In adipocytes, it is gradually dissolved in cytoplasm and exerts its effect. When depot fat in white adipocyte tissue is transported into other tissues as an energy source, the free Compound-6 is transported together with the fat. That is to say, it also serves as a depot simultaneously. The compound according to the present invention is hardly incorporated into other tissues. […] Different from retinoids, the compounds of the present invention can exert the effects without causing the side effects inherent to retinoids. The reasons are, without doubt, related to kinetics (absorption, transportation, regeneration of activated compound in target cell surface layer, etc.) of the compounds of the present invention, which differ from those of retinoids. […]

db/db mice = experiment: Long-term oral administration to hereditary obese diabetic mice (pancreas function protecting effect); type: in vivo, mouse
Text: It has been already supported by the results of several experiments that oral administration of the compounds of the present invention enhances peripheral insulin sensitivity and ameliorates metabolic disorders in db/db mice. It is, however, noteworthy that the compounds of the present invention exert an effect in retaining the function pancreatic synthesis of insulin over a long period, which is defective in diabetes. This effect was clearly indicated by serum insulin level and pathologic observation on pancreas of db/db mice to which Compound-14 had been administered over about 1 year. […] Moreover, Compound-14 ameliorated urinary protein throughout the experimental period. […] Namely, there arose a conversion of non insulin-dependent diabetes mellitus into insulin-dependent diabetes mellitus,analogous to human type II diabetes. Even body weight was reduced to a level similar to that of normal litter after the 40th week, the db/db mice lacking leptin receptor underwent overeating and food energy, which could not be anabolized due to the poverty of insulin, was excreted from the body in a large amount.
Since they lack hereditarily leptin […], db/db mice have no appetite control even at satiety. As a result, they suffer from hyperinsulinemia due to overeating and serious obesity, thereby undergoing the onset of diabetes. The compounds of the present invention were orally administered to db/db mice for 40 weeks (from 11 to 51 weeks after birth) (FIG. 2).
As obesity attained a maximum, insulin requirements exceeded insulin production levels. Thus, pancreatic Langerhans' islet β-cells having insulin depot granules therein were mostly degranulated and there arose insulin depot poverty. The pancreatic Langerhans' islet β-cells having been working severely to produce insulin in excess gradually fatigued. […] From 23rd week after birth, it became impossible to anabolize all of the food energy taken in excess due to the insufficient function of insulin, which induced a decrease in body weight. The food energy which could not be anabolized was excreted as urinary glucose. As a result, the urinary glucose increased with a decrease in the blood insulin level. […] Namely, there arose the conversion of noninsulin-dependent diabetes mellitus into insulin-dependent diabetes mellitus in clinical case of humans. […] However, Compound-14 has no function of restoring leptin receptor and thus exerts no effect on the process of the induction of obesity by hyperinsulinemia due to overeating.
Since pancreatic Langerhans' islet β-cells are of key importance in various aspects of diabetes, the ability of the compound of the present invention to maintain the function of these cells over a long period of time, is very important in terms of the treatment and prevention of diabetes.

[3] = three dose groups combined, total 14

Experimental for bovine serum: To recover such a compound in a free state from plasma, it is required to add a large amount of a water-miscible organic solvent (methanol, ethanol, acetone, acetonitrile, etc.) to the plasma, acidify the mixture (pH 3.0 or below) and then allow it to stand at room temperature for about 1 week. […] Ascochlorin, Compound-6 or Compound-14 is dissolved in a small amount of an organic solvent and added to serum.
At definite points, the serum was sampled and divided into 2 portions. Ten times as much acetonitrile was added to one of these portions and the mixture was centrifuged. Then the free compound in the serum was determined. To the other portion, 10 times as much acetonitrile containing 1% of acetic acid was added. After allowing to stand at room temperature for 1 week, the mixture was centrifuged and the free compound was determined (FIG. 10).

Molecule: 3-[5-[l(R),2(S),6(S)-trimethyl-3-oxocylohexyl]-3-methyl-2,4-pentadienyl]-2,4-dihydroxy-5-chloro-6-methylbenzaldehyde [Compound-1]
- free compound in serum (bovine serum): scarcely detected

Molecule: COc1c(Cl)c(C)c(C=O)c(O)c1C/C=C(C)/C=C/[C@@]1(C)[C@H](C)CCC(=O)[C@@H]1C [Compound-6, 4-O-methylASC]
- Inflammation score (5 grades, 1 normal to 5 disabled by swelling in both hind legs) ([1]; HM group, 50 mg/kg oral once a day): 2.2
- Inflammation score (5 grades, 1 normal to 5 disabled by swelling in both hind legs) ([1]; LM group, 10 mg/kg oral once a day): 3.2
- Inflammation score (5 grades, 1 normal to 5 disabled by swelling in both hind legs) ([1]; MM group, 25 mg/kg oral once a day): 2.8
- walking of rats disabled by swelling in joint ([1]; after 1 week of oral administration): could walk again
- Arthritis (+), number of rats [1, 3]: 7
- Arthritis (−), number of rats [1, 3]: 7
- radioactivity incorporated into white adipocyte tissue [2]: elevated day by day
- route of excretion of radioactivity [2]: mostly excreted via feces
- time after which radioactivity disappeared in most of the organs [2]: 3 days

Molecule: CC(/C=C/[C@@]1(C)[C@H](C)CCC(=O)[C@@H]1C)=C\Cc1c(O)c(C=O)c(C)c(Cl)c1OCC(=O)O [Compound-14, 4-O-carboxymethylASC]
- urinary glucose compared with the control group (db/db mice; 0.1% in feed, oral, 40 weeks (11 to 51 weeks after birth)): scarcely excreted into urine and 1/100
- blood glucose level (db/db mice; 0.1% in feed, oral, about 40 weeks after birth): almost comparable to normal litter
- function of pancreatic β-cells (insulin productivity) (db/db mice; long-term oral administration, about 1 year): completely sustained over 1 year
- urinary protein (db/db mice; throughout the experimental period): ameliorated
